Data published in the supplement of paper PMC9663587.

What was measured:
[1] = compound: CCN1CCN(Cc2ccc(Nc3ncc(F)c(-c4cc(F)c5nc(C)n(C(C)C)c5c4)n3)nc2)CC1; assay: increase in dead-cell fraction, 72 h; higher = more death;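 further: breast cancer cell lines in 384-well plates, stained with Hoechst plus LIVE/DEAD far red dye and imaged, cells above an LDR intensity threshold counted dead, Hoechst-negative corpses included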
Flavopiridol [2] = compound: T1, CN1CC[C@H](c2c(O)cc(O)c3c(=O)cc(-c4ccccc4Cl)oc23)[C@H](O)C1 [Flavopiridol]; assay: as above
[3] = compound: CCN1CCN(Cc2ccc(Nc3ncc(F)c(-c4cc(F)c5nc(C)n(C(C)C)c5c4)n3)nc2)CC1; assay: GR value, 72 h; higher = faster growth (1 = untreated, <0 = killing);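 further: breast cancer and non-malignant breast epithelial lines, nine half-log doses, viable cells counted by Hoechst and LIVE/DEAD dye imaging versus time-zero plates and DMSO controls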
LEE011/Ribociclib = compound: CN(C)C(=O)c1cc2cnc(Nc3ccc(N4CCNCC4)cn3)nc2n1C1CCCC1 [LEE011/Ribociclib]; assay: as above
Flavopiridol [4] = compound: T1, Flavopiridol; assay: as above
[5] = compound: CCc1cnn2c(NCc3ccc[n+]([O-])c3)cc(N3CCCC[C@H]3CCO)nc12; assay: as above
THZ531 = compound: CN(C)C/C=C/C(=O)Nc1ccc(C(=O)N2CCC[C@@H](Nc3ncc(Cl)c(-c4c[nH]c5ccccc45)n3)C2)cc1 [THZ531]; assay: as above
BSJ-03-123 = compound: CC(=O)c1c(C)c2cnc(Nc3ccc(N4CCN(CCOCCOCCOCCNC(=O)COc5cccc6c5C(=O)N(C5CCC(=O)NC5=O)C6=O)CC4)cn3)nc2n(C2CCCC2)c1=O [BSJ-03-123]; assay: as above
THZ1 = compound: CN(C)C/C=C/C(=O)Nc1ccc(C(=O)Nc2cccc(Nc3ncc(Cl)c(-c4c[nH]c5ccccc45)n3)c2)cc1 [THZ1]; assay: as above
[6] = compound: CC(=O)c1c(C)c2cnc(Nc3ccc(N4CCNCC4)cn3)nc2n(C2CCCC2)c1=O; assay: as above
YKL-5-124 = compound: C=CC(=O)Nc1ccc(C(=O)Nc2[nH]nc3c2CN(C(=O)N[C@H](CN(C)C)c2ccccc2)C3(C)C)cc1 [YKL-5-124]; assay: as above
Neratinib/HKI272 = compound: CCOc1cc2ncc(C#N)c(Nc3ccc(OCc4ccccn4)c(Cl)c3)c2cc1NC(=O)/C=C/CN(C)C [Neratinib/HKI272]; assay: as above

Cell Line: HCC202
- increase in dead-cell fraction ([1]; 0.001 µM): 0.0017
- increase in dead-cell fraction ([1]; 0.003162 µM): 0.0045
- increase in dead-cell fraction ([1]; 0.01 µM): 0.0025
- increase in dead-cell fraction ([1]; 0.03162 µM): 0.0166
- increase in dead-cell fraction ([1]; 0.1 µM): 0.02
- increase in dead-cell fraction ([1]; 0.3162 µM): 0.0336
- increase in dead-cell fraction ([1]; 1 µM): 0.0207
- increase in dead-cell fraction ([1]; 3.162 µM): 0.049
- increase in dead-cell fraction ([1]; 10 µM): 0.0763
- increase in dead-cell fraction (Flavopiridol [2]; 0.0001 µM): 0.0217
- increase in dead-cell fraction (Flavopiridol [2]; 0.0003162 µM): -0.005
- increase in dead-cell fraction (Flavopiridol [2]; 0.001 µM): 0.0178
- increase in dead-cell fraction (Flavopiridol [2]; 0.003162 µM): -0.0039
- increase in dead-cell fraction (Flavopiridol [2]; 0.01 µM): -0.0121
- increase in dead-cell fraction (Flavopiridol [2]; 0.03162 µM): 0.0154
- increase in dead-cell fraction (Flavopiridol [2]; 0.1 µM): 0.0477
- increase in dead-cell fraction (Flavopiridol [2]; 0.3162 µM): 0.115
- increase in dead-cell fraction (Flavopiridol [2]; 1 µM): 0.133
- GR value ([3]; 0.001 µM): 0.929 GR
- GR value ([3]; 0.003162 µM): 0.906 GR
- GR value ([3]; 0.01 µM): 0.876 GR
- GR value ([3]; 0.03162 µM): 0.855 GR
- GR value ([3]; 0.1 µM): 0.809 GR
- GR value ([3]; 0.3162 µM): 0.627 GR
- GR value ([3]; 1 µM): 0.642 GR
- GR value ([3]; 3.162 µM): 0.545 GR
- GR value ([3]; 10 µM): 0.309 GR
- GR value (LEE011/Ribociclib; 0.001 µM): 0.881 GR
- GR value (LEE011/Ribociclib; 0.003162 µM): 1.03 GR
- GR value (LEE011/Ribociclib; 0.01 µM): 1.03 GR
- GR value (LEE011/Ribociclib; 0.03162 µM): 0.891 GR
- GR value (LEE011/Ribociclib; 0.1 µM): 1.03 GR
- GR value (LEE011/Ribociclib; 0.3162 µM): 0.883 GR
- GR value (LEE011/Ribociclib; 1 µM): 0.833 GR
- GR value (LEE011/Ribociclib; 3.162 µM): 0.813 GR
- GR value (LEE011/Ribociclib; 10 µM): 0.829 GR
- GR value (Flavopiridol [4]; 0.0001 µM): 1.09 GR
- GR value (Flavopiridol [4]; 0.0003162 µM): 1.05 GR
- GR value (Flavopiridol [4]; 0.001 µM): 0.845 GR
- GR value (Flavopiridol [4]; 0.003162 µM): 0.773 GR
- GR value (Flavopiridol [4]; 0.01 µM): 0.976 GR
- GR value (Flavopiridol [4]; 0.03162 µM): 0.893 GR
- GR value (Flavopiridol [4]; 0.1 µM): 0.68 GR
- GR value (Flavopiridol [4]; 0.3162 µM): 0.24 GR
- GR value (Flavopiridol [4]; 1 µM): 0.0609 GR
- GR value ([5]; 0.0001 µM): 0.96 GR
- GR value ([5]; 0.0003162 µM): 0.998 GR
- GR value ([5]; 0.001 µM): 1.06 GR
- GR value ([5]; 0.003162 µM): 1.03 GR
- GR value ([5]; 0.01 µM): 0.784 GR
- GR value ([5]; 0.03162 µM): 0.0982 GR
- GR value ([5]; 0.1 µM): 0.14 GR
- GR value ([5]; 0.3162 µM): 0.0849 GR
- GR value ([5]; 1 µM): 0.0949 GR
- GR value (THZ531; 0.0001 µM): 1.12 GR
- GR value (THZ531; 0.0003162 µM): 0.893 GR
- GR value (THZ531; 0.001 µM): 0.907 GR
- GR value (THZ531; 0.003162 µM): 1.12 GR
- GR value (THZ531; 0.01 µM): 0.883 GR
- GR value (THZ531; 0.03162 µM): 0.809 GR
- GR value (THZ531; 0.1 µM): 0.411 GR
- GR value (THZ531; 0.3162 µM): 0.0512 GR
- GR value (THZ531; 1 µM): 0.151 GR
- GR value (BSJ-03-123; 0.001 µM): 0.979 GR
- GR value (BSJ-03-123; 0.003162 µM): 0.927 GR
- GR value (BSJ-03-123; 0.01 µM): 0.777 GR
- GR value (BSJ-03-123; 0.03162 µM): 0.873 GR
- GR value (BSJ-03-123; 0.1 µM): 0.889 GR
- GR value (BSJ-03-123; 0.3162 µM): 0.829 GR
- GR value (BSJ-03-123; 1 µM): 0.666 GR
- GR value (BSJ-03-123; 3.162 µM): 0.768 GR
- GR value (BSJ-03-123; 10 µM): 0.0981 GR
- GR value (THZ1; 0.0001 µM): 0.915 GR
- GR value (THZ1; 0.0003162 µM): 1.02 GR
- GR value (THZ1; 0.001 µM): 0.961 GR
- GR value (THZ1; 0.003162 µM): 0.866 GR
- GR value (THZ1; 0.01 µM): 0.8 GR
- GR value (THZ1; 0.03162 µM): 0.397 GR
- GR value (THZ1; 0.1 µM): 0.154 GR
- GR value (THZ1; 0.3162 µM): 0.0808 GR
- GR value (THZ1; 1 µM): 0.0457 GR
- GR value ([6]; 0.0003162 µM): 0.895 GR
- GR value ([6]; 0.001 µM): 1 GR
- GR value ([6]; 0.003162 µM): 0.904 GR
- GR value ([6]; 0.01 µM): 0.913 GR
- GR value ([6]; 0.03162 µM): 0.889 GR
- GR value ([6]; 0.1 µM): 0.798 GR
- GR value ([6]; 0.3162 µM): 0.851 GR
- GR value ([6]; 1 µM): 0.753 GR
- GR value ([6]; 3.162 µM): 0.693 GR
- GR value (YKL-5-124; 0.001 µM): 0.459 GR
- GR value (YKL-5-124; 0.003162 µM): 0.432 GR
- GR value (YKL-5-124; 0.01 µM): 0.377 GR
- GR value (YKL-5-124; 0.03162 µM): 0.409 GR
- GR value (YKL-5-124; 0.1 µM): 0.291 GR
- GR value (YKL-5-124; 0.3162 µM): 0.228 GR
- GR value (YKL-5-124; 1 µM): 0.337 GR
- GR value (YKL-5-124; 3.162 µM): 0.288 GR
- GR value (YKL-5-124; 10 µM): -0.165 GR
- GR value (Neratinib/HKI272; 0.0003162 µM): 1.05 GR
- GR value (Neratinib/HKI272; 0.001 µM): 0.953 GR
- GR value (Neratinib/HKI272; 0.003162 µM): 0.901 GR
- GR value (Neratinib/HKI272; 0.01 µM): 0.709 GR
- GR value (Neratinib/HKI272; 0.03162 µM): 0.491 GR
- GR value (Neratinib/HKI272; 0.1 µM): 0.325 GR
- GR value (Neratinib/HKI272; 0.3162 µM): 0.214 GR
- GR value (Neratinib/HKI272; 1 µM): 0.194 GR
- GR value (Neratinib/HKI272; 3.162 µM): 0.0934 GR
